Patent US20230203098A1, “HUMAN TRANSFERRIN RECEPTOR BINDING PEPTIDE” (priority 2020, published 2023)
Where two headings read alike, the source gives them in different places.

Biological target: transferrin receptor (hTfR) (Homo sapiens, UniProt P02786)
Experiment: Intermolecular interaction evaluation test between transferrin receptor (hTfR) and peptide by surface plasmon resonance (SPR)
Type: binding
In short: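 hTfR captured on Ni-NTA chip then amine-coupled; peptides run single-cycle kinetics at 5–100 nM in 10 mM HEPES pH 8.0, 150 mM NaCl, 0.05% Tween 20, 0.1% BSA, 1.0% DMSO. KD from least-squares curve fitting of sensorgrams.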

[1] = hTfR binding by SPR, hTfR No. 894 variant peptides, linker-added peptides and payload conjugates (Table 2), read-out: KD value obtained from the SPR measurement

transferrin receptor (hTfR), sequence (P02786 whole entry): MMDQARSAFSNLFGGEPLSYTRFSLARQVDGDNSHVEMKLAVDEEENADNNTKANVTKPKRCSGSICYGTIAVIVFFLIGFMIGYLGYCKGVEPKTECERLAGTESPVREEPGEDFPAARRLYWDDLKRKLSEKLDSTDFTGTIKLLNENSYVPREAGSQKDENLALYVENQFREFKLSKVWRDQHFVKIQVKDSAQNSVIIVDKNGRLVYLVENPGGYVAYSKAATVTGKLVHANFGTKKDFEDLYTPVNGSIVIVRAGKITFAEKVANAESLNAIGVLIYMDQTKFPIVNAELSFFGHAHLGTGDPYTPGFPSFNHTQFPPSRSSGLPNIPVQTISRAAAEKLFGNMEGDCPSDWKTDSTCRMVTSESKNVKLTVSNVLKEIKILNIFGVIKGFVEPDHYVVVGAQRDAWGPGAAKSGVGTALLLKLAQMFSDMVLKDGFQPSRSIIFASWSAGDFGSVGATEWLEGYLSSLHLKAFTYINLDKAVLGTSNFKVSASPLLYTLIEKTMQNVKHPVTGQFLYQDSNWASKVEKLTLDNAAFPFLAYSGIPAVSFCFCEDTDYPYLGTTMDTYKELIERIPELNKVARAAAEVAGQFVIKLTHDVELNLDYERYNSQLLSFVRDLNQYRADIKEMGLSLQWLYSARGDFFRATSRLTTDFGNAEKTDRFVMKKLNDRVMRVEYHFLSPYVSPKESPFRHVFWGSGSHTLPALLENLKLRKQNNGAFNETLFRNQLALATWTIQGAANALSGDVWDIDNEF

## CC[C@H](C)[C@@H]1NC(=O)[C@H](Cc2ccc(O)cc2)NC(=O)[C@H](Cc2ccc(O)cc2)NC(=O)[C@H](CC(N)=O)NC(=O)[C@H](Cc2c[nH]c3ccccc23)NC(=O)[C@H](C(C)C)NC(=O)[C@H](Cc2ccccc2)N(C)C(=O)[C@H](C(C)C)NC(=O)[C@H](C)NC(=O)CSC[C@@H](C(=O)N[C@@H](CCCCNC(=O)C2CCC(CN3C(=O)C=CC3=O)CC2)C(N)=O)NC(=O)[C@H](Cc2ccc(O)cc2)N(C)C(=O)[C@H](Cc2ccc(O)cc2)NC(=O)[C@H](CCCNC(=N)N)NC(=O)[C@H](CCCNC(=N)N)NC(=O)[C@H]([C@@H](C)CC)NC1=O (stereo partly drawn) [compound 186]
[1]
  Kd: 1 to 100 nM

## CC[C@H](C)[C@@H]1NC(=O)[C@H](Cc2ccc(O)cc2)NC(=O)[C@H](Cc2ccc(O)cc2)NC(=O)[C@H](CC(N)=O)NC(=O)[C@H](Cc2c[nH]c3ccccc23)NC(=O)[C@H](C(C)C)NC(=O)[C@H](Cc2ccccc2)N(C)C(=O)[C@H](C(C)C)NC(=O)[C@H](C)NC(=O)CSC[C@@H](C(=O)NCC(=O)NCC(=O)N[C@@H](CO)C(=O)N[C@@H](CO)C(=O)N[C@@H](CCCCNC(=O)C2CCC(CN3C(=O)C=CC3=O)CC2)C(N)=O)NC(=O)[C@H](Cc2ccc(O)cc2)N(C)C(=O)[C@H](Cc2ccc(O)cc2)NC(=O)[C@H](CCCNC(=N)N)NC(=O)[C@H](CCCNC(=N)N)NC(=O)[C@H]([C@@H](C)CC)NC1=O (stereo partly drawn) [compound 193]
[1]
  Kd: 1 to 100 nM

## CC[C@H](C)[C@@H]1NC(=O)[C@H](Cc2ccc(O)cc2)NC(=O)[C@H](Cc2ccc(O)cc2)NC(=O)[C@H](CC(N)=O)NC(=O)[C@H](Cc2cn(CCO)c3ccccc23)NC(=O)[C@H](C(C)C)NC(=O)[C@H](Cc2ccccc2)N(C)C(=O)[C@H](C(C)C)NC(=O)[C@H](C)NC(=O)CSC[C@@H](C(N)=O)NC(=O)[C@H](Cc2ccc(O)cc2)N(C)C(=O)[C@H](Cc2ccc(O)cc2)NC(=O)[C@H](CCCNC(=N)N)NC(=O)[C@H](CCCNC(=N)N)NC(=O)[C@H]([C@@H](C)CC)NC1=O [compound 271]
Binding to hTfR by SPR, Table 2 peptides, read-out: KD value (SPR) class
  Kd: 1 to 100 nM

## CC[C@H](C)[C@@H]1NC(=O)[C@H](Cc2ccc(O)cc2)NC(=O)[C@H](Cc2ccc(O)cc2)NC(=O)[C@H](CC(N)=O)NC(=O)[C@H](Cc2c[nH]c3ccccc23)NC(=O)[C@H](C(C)C)NC(=O)[C@H](Cc2ccccc2)N(C)C(=O)[C@H](C(C)C)NC(=O)[C@H](C)NC(=O)CSC[C@@H](C(=O)NCC(=O)N[C@H](CCC(=O)O)C(=O)N[C@H](CCC(=O)O)C(=O)N[C@H](CCC(=O)O)C(=O)NCC(=O)N[C@H](CCCCN)C(N)=O)NC(=O)[C@H](Cc2ccc(O)cc2)N(C)C(=O)[C@H](Cc2ccc(O)cc2)NC(=O)[C@H](CCCNC(=N)N)NC(=O)[C@H](CCCNC(=N)N)NC(=O)[C@H]([C@@H](C)CC)NC1=O [compound 444]
Surface plasmon resonance, peptide vs hTfR, read-out: KD value for hTfR by SPR (class symbol)
  Kd: 1 to 100 nM

## CC[C@H](C)[C@@H]1NC(=O)[C@H](Cc2ccc(OC)cc2)NC(=O)[C@H](Cc2ccc(O)cc2)NC(=O)[C@H](CC(N)=O)NC(=O)[C@H](Cc2c[nH]c3ccccc23)N(C)C(=O)[C@H](C(C)C)NC(=O)[C@H](Cc2cccc(Cl)c2)N(C)C(=O)[C@H](C(C)C)NC(=O)[C@H](C)NC(=O)CSC[C@@H](C(N)=O)NC(=O)[C@H](Cc2ccc(O)cc2)N(C)C(=O)[C@H](Cc2cccc(OC)c2)NC(=O)[C@@H](CCCNC(=N)N)NC(=O)[C@H](CCCNC(=N)N)NC(=O)[C@H]([C@@H](C)CC)NC1=O [compound 394]
Surface plasmon resonance, hTfR, read-out: KD value for hTfR by SPR (class symbol)
  Kd: 1 to 100 nM

## CC[C@H](C)[C@@H]1NC(=O)[C@H](Cc2ccc(O)cc2)NC(=O)[C@H](Cc2ccc(O)cc2)NC(=O)[C@H](CC(N)=O)NC(=O)[C@H](CCc2ccccc2)NC(=O)[C@H](C(C)C)NC(=O)[C@H](Cc2ccccc2)N(C)C(=O)[C@H](C(C)C)NC(=O)[C@H](C)NC(=O)CSC[C@@H](C(=O)NCCOCCOCCOCCOCCOCCOCCOCCOCCOCCOCCOCCOCCC(N)=O)NC(=O)[C@H](Cc2ccc(O)cc2)N(C)C(=O)[C@H](Cc2ccc(O)cc2)NC(=O)[C@H](CCCNC(=N)N)NC(=O)[C@H](CCCNC(=N)N)NC(=O)[C@H]([C@@H](C)CC)NC1=O [compound 128]
SPR, hTfR No. 894 variants with PEG12c linker (Table 2), read-out: KD
  Kd: 1 to 100 nM
